Data taken from article PMC3705412, “PTP1B Inhibitory and Anti-Inflammatory Effects of Secondary Metabolites Isolated from the Marine-Derived Fungus Penicillium sp. JF-55” (Marine Drugs, 2013).

Experiments:
iNOS = assay: Western blotting of iNOS protein expression in LPS-stimulated macrophages; type: cell-based, murine (C57BL/6 mice); details: pre-treatment 12 h, LPS 1 μg/mL 18 h
Experimental: Figure 3 The effects of penstyrylpyrone (1) (A), anhydrofulvic acid (2) (B), and citromycetin (3) (C) on the protein expression of iNOS and COX-2 in murine peritoneal macrophages stimulated with LPS. Murine peritoneal macrophages were pre-treated for 12 h at the indicated compound concentrations and stimulated for 18 h with LPS (1 μg/mL). Western blotting analysis was performed, and the representative blots of three independent experiments are shown.
(§1) C57BL/6 mice were purchased from Orient Bio Co. (Sungnam, Kyung-Kido, Korea). TG-elicited peritoneal macrophages were harvested four days after intraperitoneal (i.p.) injection of 3 mL of TG [37]. Peritoneal lavage was performed using 8 mL of Hanks’ Balanced Salt Solution containing 10 U/mL heparin. The cells were distributed in Roswell Park Memorial Institute medium (RPMI) supplemented with 10% heat-inactivated FBS, in 6-well tissue culture plates (5 × 10^6 cells/mL).
Western blotting analysis was performed by lysing the cells in 20 mM Tris-HCl buffer (pH 7.4) containing a protease inhibitor mixture (0.1 mM PMSF, 5 mg/mL aprotinin, 5 mg/mL pepstatin A, and 1 mg/mL chymostatin). The protein concentration was determined using a Lowry protein assay kit (P5626; Sigma Chemical Co., St. Louis, MO, USA). […]

[1] = system: COX-2-derived PGE2 production in murine peritoneal macrophages; assay: PGE2 production in LPS-stimulated macrophages, ELISA; type: cell-based, murine (C57BL/6 mice); details: Mus musculus, Peritoneal macrophage; pre-treated 12 h, LPS 1 μg/mL 18 h
Experimental: C57BL/6 mice were purchased from Orient Bio Co. (Sungnam, Kyung-Kido, Korea). TG-elicited peritoneal macrophages were harvested four days after intraperitoneal (i.p.) injection of 3 mL of TG [37]. Peritoneal lavage was performed using 8 mL of Hanks’ Balanced Salt Solution containing 10 U/mL heparin. The cells were distributed in Roswell Park Memorial Institute medium (RPMI) supplemented with 10% heat-inactivated FBS, in 6-well tissue culture plates (5 × 10^6 cells/mL). The level of PGE2, TNF-α or IL-1β present in each sample was determined using a commercially available kit from R & D Systems. The assay was performed according to the manufacturer’s instructions. Briefly, murine peritoneal macrophages were cultured in 24-well plates, pre-incubated for 12 h with different concentrations of compounds 1–3, and then stimulated for 18 h with LPS. The cell culture supernatants were then immediately collected after treatment and centrifuged at 13,000× g for 2 min to remove particulate matter. The medium was added to a 96-well plate pre-coated with affinity-purified PGE2-specific polyclonal antibodies or the medium was added to a 96-well plate pre-coated with affinity-purified polyclonal antibodies that were specific to mouse TNF-α or IL-1β. An enzyme-linked polyclonal antibody specific for PGE2, mouse TNF-α or IL-1β was added to the wells for 20 h, followed by a final wash to remove any unbound antibody-enzyme reagent. A substrate solution was added, and the intensity of the color produced, which was measured at 450 nm (the correction wavelength was set at 540 nm or 570 nm), was proportional to the amount of PGE2, TNF-α or IL-1β present.

[2] = system: iNOS-derived NO production in murine peritoneal macrophages; assay: Nitrite (NO) production in LPS-stimulated macrophages, Griess reaction; type: cell-based, murine (C57BL/6 mice); details: Mus musculus, Peritoneal macrophage; pre-treated 12 h, LPS 1 μg/mL 18 h
Experimental: The expression of pro-inflammatory enzymes, including COX-2 and iNOS, plays an important role in immune-activated macrophages via the production of COX-2-derived PGE2 and iNOS-derived NO [20, 21]. To investigate the effects of compounds on iNOS-derived NO and COX-2-derived PGE2 production, and iNOS and COX-2 expression in LPS-stimulated macrophages, murine peritoneal macrophages were stimulated with LPS (1 μg/mL) for 18 h in the presence or absence of non-cytotoxic concentrations of compounds 1–3 (Figure S1). […] The finding that penstyrylpyrone (1) suppressed LPS-induced pro-inflammatory mediators, such as NO, PGE2, iNOS, and COX-2, led further investigation of the effects of penstyrylpyrone (1) on LPS-induced TNF-α and IL-1β production, which are other pro-inflammatory mediators.
as §1
The production of nitrite, a stable end product of NO oxidation, was used as a measure of iNOS activity. The nitrite present in the conditioned medium was determined using a method based on the Griess reaction.

[3] = target: T1, PTP1B (human, recombinant) (Homo sapiens, UniProt P18031); assay: PTP1B assay (pNPP hydrolysis); type: biochemical
T1 construct: purchased BIOMOL Research Laboratories, Inc
T1 sequence (P18031 1-435): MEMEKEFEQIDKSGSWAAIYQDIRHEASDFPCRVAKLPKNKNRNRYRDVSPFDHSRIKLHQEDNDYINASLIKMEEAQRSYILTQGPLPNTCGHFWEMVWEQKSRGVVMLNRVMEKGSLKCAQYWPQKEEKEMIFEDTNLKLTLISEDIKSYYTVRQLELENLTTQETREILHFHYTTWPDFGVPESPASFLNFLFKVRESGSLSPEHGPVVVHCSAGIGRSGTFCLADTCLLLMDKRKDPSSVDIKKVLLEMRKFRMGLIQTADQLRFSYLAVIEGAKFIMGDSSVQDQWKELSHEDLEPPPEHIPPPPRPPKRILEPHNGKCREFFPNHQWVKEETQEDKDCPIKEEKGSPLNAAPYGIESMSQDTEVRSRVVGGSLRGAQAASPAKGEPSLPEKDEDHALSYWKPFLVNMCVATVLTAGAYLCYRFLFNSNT
Experimental: PTP1B (human, recombinant) was purchased from BIOMOL Research Laboratories, Inc. Enzyme activity was measured in a reaction mixture containing 2 mM p-nitrophenyl phosphate (pNPP) in 50 mM citrate, pH 6.0 (composition: 0.1 M NaCl, 1 mM EDTA, and 1 mM dithiothreitol (DTT)). The reaction mixture was placed in an incubator maintained at 30 °C for 30 min, and the reaction was terminated by the addition of 1 N NaOH. The amount of p-nitrophenol produced was estimated by measuring the increase in absorbance at 405 nm. The nonenzymatic hydrolysis of 2 mM pNPP was corrected by measuring the increase in absorbance at 405 nm in the absence of PTP1B enzyme. For the kinetic analysis, the reaction mixture consisted of different concentrations of pNPP as a PTP1B substrate in the absence or presence of compound 1, and assays were performed as described above. The Michaelis-Menten constant (Km) and maximum velocity (Vmax) of PTP1B were determined by the Lineweaver-Burk plot using a GraphPad Prism® 4 program (GraphPad Software Inc., San Diego, CA, USA).

IC50 [1]: 9.35 µM | IC50 [2]: 12.3 µM | IC50 ([3]; 2 mM pNPP, pH 6.0, 30 °C, 30 min, read-out: PTP1B inhibitory activity IC50): 5.28 µM | Mode of PTP1B inhibition (Lineweaver-Burk, non-linear regression) ([3]; different concentrations of pNPP): competitive
Compound: COc1cc(/C=C/c2ccccc2)oc(=O)c1C [Penstyrylpyrone (1), penstyrylpyrone]
iNOS expression (iNOS): decreased
